# Source: US8192962B2, “Processes for detecting toxic substances” (Daikin Industries, Ltd., priority 2001, dated 2012)
# Test system: Energy system protein genes
# Assay: DNA chip mRNA expression in yeast, energy system protein genes (Table 4)
# Type: cell-based, Saccharomyces cerevisiae S288C
# Experimental: Yeast (Saccharomyces cerevisiae S288C (α SUC2mal mel gap2 CUP1)) were incubated at 25° C. on YPD medium (yeast extract 1%, polypepton 2%, glucose 2%). One of toxic chemical substances was added to the cells at logarithmic growth phase, and the cells were further incubated for two hours. Cells were cultured without any chemical substance in the same condition, and were used as control. Concentrations of the chemical substances were defined to inhibit the growth of the yeast but not lead to death.
# After completion of the incubation, the culture was centrifuged to collect the cells. To the cells, sodium acetate buffer (50 mM sodium acetate, 10 mM EDTA, 1% SDS) was added, and the mixture was shaken at 65° C. for five minutes, followed by returning to room temperature, and obtaining the supernatant, of which the procedures were repeated two times. To the supernatant, ½ amount of a solution of phenol/chloroform was added, and the mixture was centrifuged to give a supernatant, which was added with an equal amount of chloroform, and the mixture was centrifuged to give a supernatant. To the supernatant, an equal amount of isopropanol containing 0.3 M sodium acetate was added, and the mixture was allowed to stand at room temperature for 30 minutes, after which the mixture was centrifuged to give a sediment of the whole RNAs. Seventy % ethanol was added to the sediment, and the mixture was again centrifuged to give a sediment, which was then dried and dissolved in water. mRNA was isolated from the whole RNAs as followings. In view of the fact that a poly A chain is attached to the 3′ terminus of mRNA, a polynucleotide having a poly T structure which was immobilized on the surface of latex beads was used to trap the mRNA, and then the mRNA was washed and eluted with spine column (Oligotex-dT30<Super>mRNA Purification Kit, Takara). Reverse transcription of the mRNA was conducted with a reverse transcriptase (Super Script II Reverse Transcriptase; catalogue No. 18064-014, GibcoBRL) using fluorescence-labeled nucleotides to give cDNAs that were introduced with Cy3-dUTP or Cy5-dUTP during the reverse transcription.
# The labeled cDNAs were dissolved in TE buffer (10mM Tris-HCl/1 mM EDTA, pH8.0), and the solution was dropped on the DNA chip containing the whole genes of yeast (DNA Chip Research Inc. Japan) so that the cDNAs were hybridized on the DNA chip at 65° C. for over 12 hours. The fluoresces intensity of the DNA chip was read with a scanner, and the ratio relative to the fluorescence intensity resulting from the absence of chemical substance was estimated as the following, which is shown in Tables 1 to 9: […]
compound,measurement,setting,value
"[Cl][Hg][Cl] [(3), HgCl2]",The level of expressed mRNA in the presence of chemical substance/The level of expressed mRNA in the absence of chemical substance,yeast gene YAL060W,3.2
same,The level of expressed mRNA in the presence of chemical substance/The level of expressed mRNA in the absence of chemical substance,"yeast gene YBL058W, cells incubated two hours with the chemical substance",0.5
same,The level of expressed mRNA in the presence of chemical substance/The level of expressed mRNA in the absence of chemical substance,"yeast gene YBL099W, cells incubated two hours with the chemical substance",3.1
same,The level of expressed mRNA in the presence of chemical substance/The level of expressed mRNA in the absence of chemical substance,"yeast gene YBR001C, cells incubated two hours with the chemical substance",1.1
same,The level of expressed mRNA in the presence of chemical substance/The level of expressed mRNA in the absence of chemical substance,"yeast gene YBR185C, cells incubated two hours with the chemical substance",1.3
same,The level of expressed mRNA in the presence of chemical substance/The level of expressed mRNA in the absence of chemical substance,"yeast gene YBR221C, cells incubated two hours with the chemical substance",3.2
same,The level of expressed mRNA in the presence of chemical substance/The level of expressed mRNA in the absence of chemical substance,yeast gene YCL040W,10.1
same,The level of expressed mRNA in the presence of chemical substance/The level of expressed mRNA in the absence of chemical substance,yeast gene YCR012W,5.1
same,The level of expressed mRNA in the presence of chemical substance/The level of expressed mRNA in the absence of chemical substance,"yeast gene YCR046C, cells incubated two hours with the chemical substance",1.2
same,The level of expressed mRNA in the presence of chemical substance/The level of expressed mRNA in the absence of chemical substance,"yeast gene YCR105W, cells incubated two hours with the chemical substance",1.2
same,The level of expressed mRNA in the presence of chemical substance/The level of expressed mRNA in the absence of chemical substance,yeast gene YDL021W,2.4
same,The level of expressed mRNA in the presence of chemical substance/The level of expressed mRNA in the absence of chemical substance,"yeast gene YDL067C, cells incubated two hours with the chemical substance",1.6
same,The level of expressed mRNA in the presence of chemical substance/The level of expressed mRNA in the absence of chemical substance,"yeast gene YDL078C, cells incubated two hours with the chemical substance",1.2
same,The level of expressed mRNA in the presence of chemical substance/The level of expressed mRNA in the absence of chemical substance,"yeast gene YDL107W, cells incubated two hours with the chemical substance",1.0
same,The level of expressed mRNA in the presence of chemical substance/The level of expressed mRNA in the absence of chemical substance,yeast gene YDL174C,0.9
same,The level of expressed mRNA in the presence of chemical substance/The level of expressed mRNA in the absence of chemical substance,"yeast gene YDL181W, cells incubated two hours with the chemical substance",1.9
same,The level of expressed mRNA in the presence of chemical substance/The level of expressed mRNA in the absence of chemical substance,yeast gene YDR001C,2.6
same,The level of expressed mRNA in the presence of chemical substance/The level of expressed mRNA in the absence of chemical substance,"yeast gene YDR050C, cells incubated two hours with the chemical substance",2.3
same,The level of expressed mRNA in the presence of chemical substance/The level of expressed mRNA in the absence of chemical substance,"yeast gene YDR079W, cells incubated two hours with the chemical substance",0.8
same,The level of expressed mRNA in the presence of chemical substance/The level of expressed mRNA in the absence of chemical substance,"yeast gene YDR178W, cells incubated two hours with the chemical substance",3.4
same,The level of expressed mRNA in the presence of chemical substance/The level of expressed mRNA in the absence of chemical substance,yeast gene YDR231C,1.0
same,The level of expressed mRNA in the presence of chemical substance/The level of expressed mRNA in the absence of chemical substance,"yeast gene YDR298C, cells incubated two hours with the chemical substance",2.6
same,The level of expressed mRNA in the presence of chemical substance/The level of expressed mRNA in the absence of chemical substance,"yeast gene YDR377W, cells incubated two hours with the chemical substance",1.3
same,The level of expressed mRNA in the presence of chemical substance/The level of expressed mRNA in the absence of chemical substance,"yeast gene YDR529C, cells incubated two hours with the chemical substance",0.9
same,The level of expressed mRNA in the presence of chemical substance/The level of expressed mRNA in the absence of chemical substance,"yeast gene YEL024W, cells incubated two hours with the chemical substance",3.8
same,The level of expressed mRNA in the presence of chemical substance/The level of expressed mRNA in the absence of chemical substance,"yeast gene YEL039C, cells incubated two hours with the chemical substance",1.3
same,The level of expressed mRNA in the presence of chemical substance/The level of expressed mRNA in the absence of chemical substance,yeast gene YER178W,3.6
same,The level of expressed mRNA in the presence of chemical substance/The level of expressed mRNA in the absence of chemical substance,yeast gene YFL057C,1.5
same,The level of expressed mRNA in the presence of chemical substance/The level of expressed mRNA in the absence of chemical substance,yeast gene YFR053C,3.0
same,The level of expressed mRNA in the presence of chemical substance/The level of expressed mRNA in the absence of chemical substance,"yeast gene YGL018C, cells incubated two hours with the chemical substance",1.8
same,The level of expressed mRNA in the presence of chemical substance/The level of expressed mRNA in the absence of chemical substance,yeast gene YGL062W,1.1
same,The level of expressed mRNA in the presence of chemical substance/The level of expressed mRNA in the absence of chemical substance,"yeast gene YGL187C, cells incubated two hours with the chemical substance",1.6
same,The level of expressed mRNA in the presence of chemical substance/The level of expressed mRNA in the absence of chemical substance,"yeast gene YGL191W, cells incubated two hours with the chemical substance",1.4
same,The level of expressed mRNA in the presence of chemical substance/The level of expressed mRNA in the absence of chemical substance,"yeast gene YGL205W, cells incubated two hours with the chemical substance",0.7
same,The level of expressed mRNA in the presence of chemical substance/The level of expressed mRNA in the absence of chemical substance,"yeast gene YGL256W, cells incubated two hours with the chemical substance",1.1
same,The level of expressed mRNA in the presence of chemical substance/The level of expressed mRNA in the absence of chemical substance,yeast gene YGR043C,3.2
same,The level of expressed mRNA in the presence of chemical substance/The level of expressed mRNA in the absence of chemical substance,"yeast gene YGR062C, cells incubated two hours with the chemical substance, 25° C., YPD medium",0.7
same,The level of expressed mRNA in the presence of chemical substance/The level of expressed mRNA in the absence of chemical substance,"yeast gene YGR087C, cells incubated two hours with the chemical substance",1.7
same,The level of expressed mRNA in the presence of chemical substance/The level of expressed mRNA in the absence of chemical substance,"yeast gene YGR174C, cells incubated two hours with the chemical substance",0.6
same,The level of expressed mRNA in the presence of chemical substance/The level of expressed mRNA in the absence of chemical substance,yeast gene YGR192C,3.8
same,The level of expressed mRNA in the presence of chemical substance/The level of expressed mRNA in the absence of chemical substance,yeast gene YGR244C,1.6
same,The level of expressed mRNA in the presence of chemical substance/The level of expressed mRNA in the absence of chemical substance,yeast gene YGR254W,3.8
same,The level of expressed mRNA in the presence of chemical substance/The level of expressed mRNA in the absence of chemical substance,yeast gene YHR179W,2.6
same,The level of expressed mRNA in the presence of chemical substance/The level of expressed mRNA in the absence of chemical substance,yeast gene YIL160C,2.3
same,The level of expressed mRNA in the presence of chemical substance/The level of expressed mRNA in the absence of chemical substance,"yeast gene YIR031C, cells incubated two hours with the chemical substance",0.6
same,The level of expressed mRNA in the presence of chemical substance/The level of expressed mRNA in the absence of chemical substance,yeast gene YJL052W,4.0
same,The level of expressed mRNA in the presence of chemical substance/The level of expressed mRNA in the absence of chemical substance,"yeast gene YJL121C, cells incubated two hours with the chemical substance",1.9
same,The level of expressed mRNA in the presence of chemical substance/The level of expressed mRNA in the absence of chemical substance,"yeast gene YJL166W, cells incubated two hours with the chemical substance",1.6
same,The level of expressed mRNA in the presence of chemical substance/The level of expressed mRNA in the absence of chemical substance,"yeast gene YJL216C, cells incubated two hours with the chemical substance",2.2
same,The level of expressed mRNA in the presence of chemical substance/The level of expressed mRNA in the absence of chemical substance,yeast gene YJR009C,5.6
